Data taken from patent US11661259B2, “Apparatus, arrangement and method for providing skin care ingredients” (MEMORIAL SLOAN-KETTERING CANCER CENTER, priority 2013, dated 2023).

How the values were obtained:
[1] = Decay of vitamin stored in liquid solution (loss of initial activity); conditions: dissolved in a liquid solution, stored in a closed and dark container, after 60 days
[2] = Time required to completely dissolve Vitamin C powder in water; assay type: physicochemical
Excerpt: 1. Determine the amount of time required to completely dissolve Vitamin C powder with 12 to 15 cc of water. In general, it requires 45 to 120 seconds to completely dissolve 1% to 15% Vitamin C powder in water.

loss of initial activity [1] [%] | Time to completely dissolve ([2]; 1% to 15% Vitamin C powder in water) [s] | Time to completely dissolve ([2]; 1 wt % Vitamin C, 151 mg in 15 g water) [s] | Time to completely dissolve ([2]; 5 wt % Vitamin C, 526 mg in 12 g water) [s] | Time to completely dissolve ([2]; 10 wt % Vitamin C, 1107 mg in 12 g water) [s] | Time to completely dissolve ([2]; 15 wt % Vitamin C, 1765 mg in 12 g water) [s] | Time to completely dissolve ([2]; 20 wt % Vitamin C, 2496 mg in 12 g water) [s] | Molecule
~72 | 45 to 120 | 60 | 45 | 75 | 120 | 210 | O=C1O[C@H]([C@@H](O)CO)C(O)=C1O [Vitamin C, L-ascorbic acid]
~35 | – | – | – | – | – | – | tocopherol [Vitamin E]
